Measurements published in paper PMC5062114, “Dual-targeting anti-angiogenic cyclic peptides as potential drug leads for cancer therapy” (Scientific Reports, 2016).
Like-named read-outs stand apart in the source and are kept apart here. Bridge positions count the residues as written; N and C are the ends. Square brackets hold non-standard residues; d marks the D form. Ends that are not written are not given here. Peptide text beside a SMILES is read from it.

Assays:
Assay in all cases: cells
HUVEC = system: HUVEC
Procedure: (§1) HUVECs (human umbilical vein endothelial cells) were cultured in EGM™-2 BulletKit™ supplemented with SingleQuots™ (supplements: growth factors, cytokines, antibiotics; Lonza) and 10% FBS (catalog no. FFBS-500; Scientifix). Both HT-29 and MCF-7 cells were cultured in 10% FBS/DMEM (Dulbecco’s Modified Eagle Medium) with 1% penicillin–streptomycin (5000 U/mL; Life Technologies), whereas PC3 cells (prostate cancer cells) were cultured in 10% FBS/RPMI (Roswell Park Memorial Institute) 1640 with 1% penicillin–streptomycin (5000 U/mL; Life Technologies). All cells were maintained at 37 °C in 5% CO2.
(§2) Cell cytotoxicity and proliferation assays were performed using similar methods to those described by Chan et al.[45]. All cells were maintained using the media conditions described above, and passages two to ten were used for all cell lines. For all cell lines, 5.0 × 10^3 cells/well (100 μL) and 1.5 × 10^3 cells/well (100 μL) were used for cell cytotoxicity and cell proliferation assays, respectively. All peptides (10 μL, at final concentrations ranging from 0.05–100 μM) and drugs, which included cilengitide, octreotide and sunitinib (at final concentrations ranging from 0.00001–100 μM), were used in both assays. Triton X-100 (0.1% (v/v); 10 μL) was used as a positive control. Cells were treated with fresh media the day after plating, before the addition of peptides, followed by a subsequent 2-h and 48-h incubation for cell cytotoxicity and cell proliferation, respectively. After different incubation periods, 3-(4, 5-dimethylthiazolyl-2)-2,5-diphenyltetrazolium bromide (MTT) (10 μL; 5 mg/mL in PBS) was added, and cells were incubated for a further 4 h. The supernatant was then removed and 100 μL DMSO added to solubilize formazan salts. Experiments were performed in triplicate. Cell numbers were recorded at 600 nm. All data represent average mean ± SD.

HT-29 = system: HT-29
Procedure: as §1, §2

PC3 = system: PC3
Procedure: as §1, §2

MCF-7 = system: MCF-7
Procedure: as §1, §2

[1] = read-out: IC50 ± S.D., 48 hours, HUVEC, cell proliferation inhibition, MTT, 48-h incubation, 1.5 × 10^3 cells/well, triplicate, mean ± SD
[2] = read-out: IC50 ± S.D., 48 hours, HT-29, cell proliferation inhibition, MTT, 48-h incubation, 1.5 × 10^3 cells/well, triplicate, mean ± SD
[3] = read-out: IC50 ± S.D., 48 hours, PC3, cell proliferation inhibition, MTT, 48-h incubation, 1.5 × 10^3 cells/well, triplicate, mean ± SD
[4] = read-out: IC50 ± S.D., 48 hours, MCF-7, cell proliferation inhibition, MTT, 48-h incubation, 1.5 × 10^3 cells/well, triplicate, mean ± SD

Row | Molecule | IC50 (HUVEC; [1]) [µM] | IC50 (HT-29; [2]) [µM] | IC50 (PC3; [3]) [µM] | IC50 (MCF-7; [4]) [µM] | IC50 (HUVEC; 4 h) [µM] | IC50 (HT-29; 4 h) [µM] | IC50 (PC3; 4 h) [µM] | IC50 (MCF-7; 4 h) [µM]
1 | CC[C@H](C)[C@@H]1NC(=O)[C@@H]2CSSC[C@@H]3NC(=O)[C@H](Cc4c[nH]c5ccccc45)NC(=O)[C@H]([C@@H](C)O)NC(=O)[C@H](CCCCN)NC(=O)[C@@H](Cc4c[nH]c5ccccc45)NC(=O)[C@H](Cc4ccccc4)NC(=O)[C@H](CCCNC(=N)N)NC(=O)[C@@H]4CSSC[C@H](NC(=O)[C@H](CC(=O)O)NC(=O)[C@H](CO)NC(=O)[C@H](CC(=O)O)NC(=O)[C@H](CCCNC(=N)N)NC(=O)[C@H](CCCNC(=N)N)NC(=O)[C@H](CSSC[C@H](NC1=O)C(=O)N[C@@H](CCCNC(=N)N)C(=O)NCC(=O)N[C@@H](CC(N)=O)C(=O)NCC(=O)N[C@@H](Cc1ccc(O)cc1)C(=O)N4)NC(=O)[C@H](CCCCN)NC(=O)[C@H](CCCCN)NC(=O)[C@H](CC(C)C)NC(=O)[C@H]([C@@H](C)CC)NC(=O)[C@H](CCCCN)NC(=O)[C@@H]1CCCN1C3=O)C(=O)N1CCC[C@H]1C(=O)NCC(=O)N[C@@H](C)C(=O)N2 [MCo-SST-02] (cyclo(ACICRGNGYCRF[dW]KTWCPKILKKCRRDSDCPG); disulfide 2-17, 4-24, 10-30) | > 100 | 58.89 ± 0.09 | 83.55 ± 0.2 | 70.61 ± 0.11 | – | – | – | –
2 | CC[C@H](C)[C@@H]1NC(=O)[C@@H]2CCCN2C(=O)[C@@H]2CCCN2C(=O)[C@H]([C@@H](C)CC)NC(=O)[C@H](CO)NC(=O)[C@H](CCCCN)NC(=O)[C@H]([C@@H](C)O)NC(=O)[C@@H]2CSSC[C@H](NC1=O)C(=O)N[C@@H](Cc1ccc(O)cc1)C(=O)N[C@@H](Cc1c[nH]cn1)C(=O)N[C@@H](CC(C)C)C(=O)N[C@@H](CC(N)=O)C(=O)N[C@@H](CCC(N)=O)C(=O)N1CCC[C@H]1C(=O)N[C@@H](Cc1ccccc1)C(=O)N2 [SFTI-PEDF] (cyclo(CTKSIPPICYHLNQPF); disulfide 1-9) | 27.89 ± 0.11 | > 100 | > 100 | > 100 | – | – | – | –
3 | CC[C@H](C)[C@@H]1NC(=O)[C@H](CCCNC(=N)N)NC(=O)[C@H](CCCNC(=N)N)NC(=O)[C@H](CCCNC(=N)N)NC(=O)[C@H](CCCCN)NC(=O)[C@H](CCCNC(=N)N)NC(=O)[C@H](CCCNC(=N)N)NC(=O)[C@@H]2CSSC[C@H](NC1=O)C(=O)N[C@@H](Cc1ccccc1)C(=O)N1CCC[C@H]1C(=O)N[C@@H](CC(=O)O)C(=O)NCC(=O)N[C@@H](CCCNC(=N)N)C(=O)N2 [SFTI-polyR-L1] (cyclo(CFPDGRCRRKRRRI); disulfide 1-7) | > 100 | 82.27 ± 0.13 | > 100 | 28.72 ± 0.15 | – | – | – | –
4 | CC[C@H](C)[C@@H]1NC(=O)[C@@H]2CSSC[C@@H]3NC(=O)[C@H](C(C)C)NC(=O)CNC(=O)CNC(=O)[C@H](CC(=O)O)NC(=O)[C@H](CO)NC(=O)CNC(=O)[C@H](CO)NC(=O)CNC(=O)[C@@H]4CSSC[C@H](NC(=O)[C@H](CC(=O)O)NC(=O)[C@H](CO)NC(=O)[C@H](CC(=O)O)NC(=O)[C@H](CCCNC(=N)N)NC(=O)[C@H](CCCNC(=N)N)NC(=O)[C@H](CSSC[C@H](NC1=O)C(=O)N[C@@H](CCCNC(=N)N)C(=O)N[C@@H](Cc1ccc(O)cc1)C(=O)N[C@H](Cc1c[nH]c5ccccc15)C(=O)N[C@@H](CCCCN)C(=O)N[C@@H](C(C)C)C(=O)N4)NC(=O)CNC(=O)[C@H](CCCNC(=N)N)NC(=O)[C@H](CCCNC(=N)N)NC(=O)[C@H](CCCNC(=N)N)NC(=O)[C@H](CCCCN)NC(=O)[C@H](CCCNC(=N)N)NC(=O)[C@H](CCCNC(=N)N)NC(=O)CNC3=O)C(=O)N1CCC[C@H]1C(=O)NCC(=O)N[C@@H](C)C(=O)N2 [MCoAA-01] (cyclo(ACICRY[dW]KVCGSGSDGGVCGRRKRRRGCRRDSDCPG); disulfide 2-19, 4-28, 10-34) | 10.83 ± 0.09 | 40.12 ± 0.13 | > 100 | 45.01 ± 0.16 | – | – | – | –
5 | CC[C@H](C)[C@@H]1NC(=O)[C@@H]2CSSC[C@@H]3NC(=O)[C@H](C(C)C)NC(=O)CNC(=O)CNC(=O)[C@H](CC(=O)O)NC(=O)[C@H](CO)NC(=O)CNC(=O)[C@H](CO)NC(=O)CNC(=O)[C@@H]4CSSC[C@H](NC(=O)[C@H](CC(=O)O)NC(=O)[C@H](CO)NC(=O)[C@H](CC(=O)O)NC(=O)[C@H](CCCNC(=N)N)NC(=O)[C@H](CCCNC(=N)N)NC(=O)[C@H](CSSC[C@H](NC1=O)C(=O)N[C@@H](CCCNC(=N)N)C(=O)NCC(=O)N[C@@H](CC(N)=O)C(=O)NCC(=O)N[C@@H](Cc1ccc(O)cc1)C(=O)N4)NC(=O)[C@H](CCCNC(=N)N)NC(=O)[C@H](CCCNC(=N)N)NC(=O)[C@H](CCCNC(=N)N)NC(=O)[C@H](CCCCN)NC(=O)[C@H](CCCNC(=N)N)NC(=O)[C@H](CCCNC(=N)N)NC3=O)C(=O)N1CCC[C@H]1C(=O)NCC(=O)N[C@@H](C)C(=O)N2 [MCo-polyR-L1] (cyclo(ACICRGNGYCGSGSDGGVCRRKRRRCRRDSDCPG); disulfide 2-19, 4-26, 10-32) | > 100 | > 100 | > 100 | > 100 | – | – | – | –
6 | CC[C@H](C)[C@@H]1NC(=O)[C@@H]2CCCN2C(=O)[C@@H]2CCCN2C(=O)[C@H]([C@@H](C)CC)NC(=O)[C@H](CO)NC(=O)[C@H](CCCCN)NC(=O)[C@H]([C@@H](C)O)NC(=O)[C@@H]2CSSC[C@H](NC1=O)C(=O)N[C@@H](CCCNC(=N)N)C(=O)N[C@@H](CCCNC(=N)N)C(=O)N[C@@H](CCCCN)C(=O)N[C@@H](CCCNC(=N)N)C(=O)N[C@@H](CCCNC(=N)N)C(=O)N[C@@H](CCCNC(=N)N)C(=O)N2 [SFTI-polyR-L2] (cyclo(CRRKRRRCTKSIPPI); disulfide 1-8) | > 100 | > 100 | > 100 | 41.84 ± 0.07 | – | – | – | –
7 | YHLNQPF [PEDF, reference compound] | 19.4 ± 0.08 | > 100 | > 100 | > 100 | – | – | – | –
8 | CC[C@H](C)[C@@H]1NC(=O)[C@@H]2CSSC[C@@H]3NC(=O)[C@H](Cc4ccccc4)NC(=O)[C@@H]4CCCN4C(=O)[C@H](CCC(N)=O)NC(=O)[C@H](CC(N)=O)NC(=O)[C@H](CC(C)C)NC(=O)[C@H](Cc4c[nH]cn4)NC(=O)[C@H](Cc4ccc(O)cc4)NC(=O)[C@@H]4CSSC[C@H](NC(=O)[C@H](CC(=O)O)NC(=O)[C@H](CO)NC(=O)[C@H](CC(=O)O)NC(=O)[C@H](CCCNC(=N)N)NC(=O)[C@H](CCCNC(=N)N)NC(=O)[C@H](CSSC[C@H](NC1=O)C(=O)N[C@@H](CCCNC(=N)N)C(=O)NCC(=O)N[C@@H](CC(N)=O)C(=O)NCC(=O)N[C@@H](Cc1ccc(O)cc1)C(=O)N4)NC(=O)[C@H](CCCCN)NC(=O)[C@H](CCCCN)NC(=O)[C@H](CC(C)C)NC(=O)[C@H]([C@@H](C)CC)NC(=O)[C@H](CCCCN)NC(=O)[C@@H]1CCCN1C3=O)C(=O)N1CCC[C@H]1C(=O)NCC(=O)N[C@@H](C)C(=O)N2 [MCo-PEDF] (cyclo(ACICRGNGYCYHLNQPFCPKILKKCRRDSDCPG); disulfide 2-18, 4-25, 10-31) | 50.16 ± 0.15 | 35.22 ± 0.08 | 39.11 ± 0.07 | 53.44 ± 0.14 | – | – | – | –
9 | CC[C@H](C)[C@@H]1NC(=O)[C@@H]2CCCN2C(=O)[C@@H]2CCCN2C(=O)[C@H]([C@@H](C)CC)NC(=O)[C@H](CO)NC(=O)[C@H](CCCCN)NC(=O)[C@H]([C@@H](C)O)NC(=O)[C@@H]2CSSC[C@H](NC1=O)C(=O)N[C@@H](CCCNC(=N)N)C(=O)N[C@@H](Cc1ccccc1)C(=O)N[C@H](Cc1c[nH]c3ccccc13)C(=O)N[C@@H](CCCCN)C(=O)N[C@@H]([C@@H](C)O)C(=O)N[C@@H](Cc1c[nH]c3ccccc13)C(=O)N2 [SFTI-SST-02] (cyclo(CRF[dW]KTWCTKSIPPI); disulfide 1-8) | > 100 | 43.29 ± 0.04 | > 100 | 55.13 ± 0.07 | – | – | – | –
10 | C[C@@H](O)[C@H](NC(=O)[C@H](CCCCN)NC(=O)[C@@H](Cc1c[nH]c2ccccc12)NC(=O)[C@H](Cc1ccccc1)NC(=O)[C@@H](N)CCCNC(=N)N)C(=O)N[C@@H](Cc1c[nH]c2ccccc12)C(=O)O [SST-02, reference compound] (H-RF[dW]KTW-OH) | – | – | – | – | > 100 | > 100 | > 100 | > 100
11 | CC[C@H](C)[C@@H]1NC(=O)[C@@H]2CCCN2C(=O)[C@@H]2CCCN2C(=O)[C@H]([C@@H](C)CC)NC(=O)[C@H](CO)NC(=O)[C@H](CCCCN)NC(=O)[C@H]([C@@H](C)O)NC(=O)[C@@H]2CSSC[C@H](NC1=O)C(=O)N[C@@H](Cc1ccccc1)C(=O)N1CCC[C@H]1C(=O)N[C@@H](CC(=O)O)C(=O)NCC(=O)N[C@@H](CCCNC(=N)N)C(=O)N2 [SFTI-1, sunflower trypsin inhibitor-1, reference compound] | > 100 | > 100 | > 100 | > 100 | – | – | – | –
